Assay results as given in US20040197268A1, “Method of imaging amyloid deposits using substituted rhodanine derivatives” (priority 1999, published 2004).
pIC50: −log10 of the molar value. Blank lines part the entries; values can stand above or below the compound they belong to.

Key:
Aβ(1-40) [1] = biological target: T1, Aβ(1-40) (Homo sapiens, UniProt P05067); assay: BASSR (Beta-Amyloid Self-Seeding Radioassay), inhibitors of self-seeded amyloid fibril growth; assay type: biochemical; conditions: 30 μM soluble Aβ(1-40) + 125I-labeled Aβ(1-40), pH 7.5, 37° C., 3 to 5 hours, filtration
T1 construct: Soluble Aβ(1-40) peptide (Bachem, Torrance, Calif.); purchased Bachem, Torrance, Calif
T1 sequence (P05067 672-711 limits assumed): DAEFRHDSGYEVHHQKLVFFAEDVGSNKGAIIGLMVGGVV
Method: BASSR (Beta-Amyloid Self-Seeding Radioassay)
(§1) An assay for inhibitors of self-seeded amyloid fibril growth
Assay Buffer—50 mM sodium phosphate, pH 7.5, 100 mM NaCl, 0.02% NaN3, 1 M urea (filter and store at 4° C.)
Soluble Aβ(1-40) peptide (Bachem, Torrance, Calif.)—2.2 mg/mL in deionized H2O (stored in aliquots at −20° C., keep on ice when thawed) will self-seed after 1 week storage. Typically, the solution should be stored until no lag phase is seen in the assay.
^125I-labeled Aβ(1-40)—150K-350K cpm/μL in 100% acetonitrile—0.1% trifluoroacetic acid (TFA)—1% β-mercaptoethanol (aliquots stored at −20° C.). ^125I-labeled Aβ(1-40) can be made in accordance with the procedure set forth by H. Levine, III in Neurobiol. Aging, 16:755 (1995), which is hereby incorporated by reference, or this reagent may be purchased from Amersham, Arlington Heights, Ill.
Final assay conditions: 30 μM soluble Aβ(1-40) in deionized water in assay buffer+20-50K cpm ^125I-labeled Aβ(1-40) per assay. Compound to be tested is dissolved in dimethylsulfoxide (DMSO), typically 5-50 mM stock, such that the final concentration of DMSO is <1% v/v in the assay.
Assay: Reaction mixture for 50 assays (on ice) is comprised of 0.1-0.2 μL of […] ^125I-labeled Aβ(1-40)+1 μL of soluble Aβ(1-40)+13.5 μL assay buffer per assay. The following are the amounts of the components of the reaction mixture sufficient for 50 assay wells.
1) Prepare reaction mixture above by mixing components and storing on ice.
2) Pipet 14.5 μL of reaction mixture into each of 50 wells on a polypropylene U-bottom 96-well microtiter plate on ice (Costar 3794).
(§2) 3) Add 1.7 μL of diluted compound to be tested to each well in a column of eight, including solvent control. Serial 3-fold dilutions from 1 mM (100 μM final) in assay buffer−urea=7 dilutions+zero. Each 96-well plate can therefore accommodate 11 samples+1 Congo Red control (0.039-5 μM final in 2-fold steps).
4) Seal the plate with aluminum film (Beckman 538619) and incubate for 10 minutes on ice.
5) Raise the temperature to 37° C. and incubate for 3 to 5 hours (depending on the lot of the peptide).
6) Remove the aluminum film and add 200 μL/well of ice cold assay buffer with urea, collecting the radiolabeled fibrils by vacuum filtration through 0.2 μm pore size GVWP filters in 96-well plates (Millipore MAGV N22, Bedford, Mass.). Determine the radioactivity of the filters using standard methods well-known to those skilled in the art.

Aβ(1-40) [2] = biological target: T1, Aβ(1-40); assay: BASST (Beta-Amyloid Self-Seeding, ThioflavinT), inhibitors of self-seeded amyloid fibril growth; assay type: biochemical; conditions: 30 μM soluble Aβ(1-40), pH 7.5, 37° C., 3 to 5 hours, thioflavin T fluorescence
Method: BASST (Beta-Amyloid Self-Seeding, ThioflavinT)
as §1
Assay Buffer—50 mM sodium phosphate, pH 7.5, 100 mM NaCl, 0.02% NaN3, 1 M urea (filter and store at 4° C.).
Soluble Aβ(1-40)—2.2 mg/mL in deionized H2O (store in aliquots at −20° C., keep on ice when thawed) will self-seed after 1 week storage. Typically, the solution should be stored until no lag phase is seen in the assay.
Final assay conditions: 30 μM soluble Aβ(1-40) in deionized water in assay buffer. Compound to be tested is dissolved in DMSO, typically 5-50 mM stock, such that the final concentration of DMSO is <1% v/v in the assay.
Assay: Reaction mixture for 50 assays (on ice) comprised of 1 μL of soluble Aβ(1-40)+13.5 μL assay buffer per assay. The following are the amounts of the components of the reaction mixture that result in each of the 50 assay wells.
1) Prepare the reaction mix above by mixing the components and storing on ice.
2) Pipet […] of reaction mixture into each of 50 wells of a polystyrene U-bottom 96-well microtiter plate (Corning 25881-96) on ice.
as §2, with “[…]” for “μL”
4) Seal the plate with aluminum film and incubate for 10 minutes on ice.
5) Raise the temperature to 37° C. and incubate for 3 to 5 hours (depends on the lot of the peptide).
6) Remove the aluminum film and add 250 μL/well of 5 μM thioflavin T (ThT) [T-3516, Sigma-Aldrich] in 50 mM glycine-NaOH, pH 8.5. Read fluorescence on a plate reader (ex=440 nm/20 nm; em=485 nm/20 nm) within 5 minutes.

Aβ(1-42) = biological target: T2, Aβ(1-42) (Homo sapiens, UniProt P05067); assay: BATYM Assay (Aβ(1-42) aggregation, Thioflavin T fluorescence); assay type: biochemical; conditions: Aβ 1-42 final concentration 100 μM, PBS pH 7.4, 37° C., 1 day, ThT fluorescence
T2 construct: Required Aβ(1-42)(California Peptide) was dried from its hexafluoroisopropanol (HFIP) stock solution; purchased California Peptide
T2 sequence (P05067 672-713 limits assumed): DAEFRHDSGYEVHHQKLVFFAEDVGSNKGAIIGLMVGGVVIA
Method: Required Aβ(1-42)(California Peptide) was dried from its hexafluoroisopropanol (HFIP) stock solution. The Aβ(1-42) was dissolved in dimethylsulfoxide (DMSO) and then mixed with phosphate buffered saline, (PBS) (pH 7.4). The mixed Aβ(1-42) solution was filtered with a 0.2 μm Omnipore membrane syringe filter (Millipore, Bedford, Mass.). The compound to be tested in DMSO (50 times concentrate) was put into each well (0.5 μL/well) of a 96-well plate. The Aβ(1-42) solution was added into each well (24.5 μL/well). The plate was centrifuged at 1,000 g for 5 minutes and incubated at 37° C. for 1 day (Aβ 1-42; final concentration 100 μM).
After incubation Thioflavin T (ThT) (30 μM) solution in glycine-NaOH buffer (pH 8.5, 50 mM) was added into each well (250 μL/well), fluorescence was measured (ex. 440/20 nm; em 485/20 nm) using a fluorescence plate reader. The inhibitory activity was calculated as the reduction of fluorescence with the following formula:
inhibition (%)={(F(Aβ)−F(Aβ+compound)}/{F(Aβ)−F(solvent+compound)}×100
The IC50s were calculated by a curve fitting program using the following equation. The data were obtained from two different experiments in triplicate.
x=concentration of tested compound (M),

[3] = biological target: T3, beta amyloid peptide Aβ(1-40) (Homo sapiens, UniProt P05067); assay: BAPA (Beta-Amyloid Peptide Aggregation), pH 6.0; assay type: biochemical; conditions: Aβ(1-40) 33 μM, pH 6.0, 2 to 4 hours at room temperature, filtration
T3 construct: 0.5 mg/mL AP (140) peptide in 20% HFIP+0.1 μL/assay radioiodinated ^125I Aβ(1-40)
T3 sequence (P05067 672-711 limits assumed): as the sequence (P05067 672-711 limits assumed) above
Method: BAPA (Beta-Amyloid Peptide Aggregation)
This assay is used to provide a measure of inhibition by a compound against the aggregation behavior of the beta amyloid peptide.
The purpose of this assay is to provide a higher volume method of assaying the amount of beta amyloid aggregation using an endpoint assay based on filtration. In this assay, hexafluoroisopropanol (HFIP) is used to break down the initial amyloid peptide to a monomer state and use a concentration of 33 μM which is high enough so that aggregation will occur at pH 6.0 in several hours.
β-Amyloid Peptide Aggregation, pH 6.0 (BAPA)
In a 96-well plate (Costar 3794), we add […] 50 mM Phosphate Buffer, pH 6.0, 10 μL 0.5 mg/mL AP (140) peptide in 20% HFIP+0.1 μL/assay radioiodinated ^125I Aβ(1-40) [^125I Aβ(1-40)], and 1 μL of the compound to be tested starting at 50 mM with a concentration of DMSO <1%. Then, we incubate for 2 to 4 hours at room temperature. We stop the reaction with […] of 50 mM phosphate buffer, pH 6.0, and filter it through a 0.2 μm 96-well filter plate (Millipore MAGU N22). We wash the filter plate with 100 μL of the same phosphate buffer. Aggregation was detected on a Microbeta counter after impregnating the filters with Meltilex (1450-441) and is corrected for background.

SMILES: CCCCCCN(C)c1ccc(/C=C2\SC(=S)N(CCS(=O)(=O)NC(=O)C(F)(F)F)C2=O)cc1 [Example 3, (Z) 2-{5-[4-(Hexyl-methyl-amino)-benzylidene]-4-oxo-2-thioxo-thiazolidin-3-yl}-ethanesulfonic acid trifluoroacetyl-amide]
pIC50 (Aβ(1-40) [1]): 5.10
pIC50 (Aβ(1-40) [2]): 6.52
pIC50 (Aβ(1-42)): 5.65
pIC50 [3]: < 4.00
melting point: 158 to 162 °C

SMILES: CCCCCCN(C)c1ccc(/C=C2\SC(=S)N(CC(=O)NC)C2=O)cc1 [Example 4, (Z) 2-{5-[4(Hexyl-methyl-amino)-benzylidene]-4-oxo-2-thioxo-thiazolidin-3-yl}-N-methyl-acetamide]
pIC50 (Aβ(1-40) [1]): < 4.00
pIC50 (Aβ(1-40) [2]): 5.52
pIC50 (Aβ(1-42)): 5.08
pIC50 [3]: 5.22
melting point: 228 to 230 °C

SMILES: CCCCCCN(C)c1ccc(/C=C2\SC(=S)N(CC(=O)NS(C)(=O)=O)C2=O)cc1 [Example 5, (Z) N-({5-[4-(Hexyl-methyl-amino)-benzylidene]4-oxo-2-thioxo-thiazolidin-3-yl}-acetyl)methanesulfonamide]
pIC50 (Aβ(1-40) [1]): 5.05
pIC50 (Aβ(1-40) [2]): 6.10
pIC50 (Aβ(1-42)): 5.74
pIC50 [3]: < 5.00
melting point: 227 to 230 °C

SMILES: CCCCCN(CCCCC)c1ccc(/C=C2\SC(=S)N(CC(=O)NS(C)(=O)=O)C2=O)cc1 [Example 6, (Z) N-{5-[4-(Dipentylamino-benzylidene)4-oxo-2-thioxo-thiazolidin-3-yl]-acetyl}-methanesulfonamide]
pIC50 (Aβ(1-40) [1]): < 4.00
pIC50 (Aβ(1-40) [2]): 4.55
pIC50 (Aβ(1-42)): 5.53
pIC50 [3]: 5.52
melting point: 134 to 138 °C

SMILES: CCCCCCN(C)c1ccc(/C=C2\SC(=S)N(CC(=O)NS(=O)(=O)C(F)(F)F)C2=O)cc1 [Example 7, (Z) C,C,C-Trifluoro-N-({5-[4-(hexyl-methyl-amino)-benzylidene]4-oxo-2-thioxo-thiazolidin-3-yl}-acetyl)methanesulfonamide]
pIC50 (Aβ(1-40) [1]): 6.00
pIC50 (Aβ(1-40) [2]): 6.40
pIC50 (Aβ(1-42)): 5.77
pIC50 [3]: 4.15
melting point: 94 to 97 °C

SMILES: CCCCCN(CCCCC)c1ccc(/C=C2\SC(=S)N(CC(=O)NS(=O)(=O)C(F)(F)F)C2=O)cc1 [Example 8, (Z) N-{5-[4-(Dipentylamino-benzylidene)-4-oxo-2-thioxo-thiazolidin-3-yl]-acetyl}-C,C,C-trifluoro-methanesulfonamide]
pIC50 (Aβ(1-40) [1]): < 4.00
pIC50 (Aβ(1-40) [2]): 6.00
pIC50 (Aβ(1-42)): 5.71
pIC50 [3]: 5.60
melting point: 286 to 288 °C

SMILES: CCCCCCN(C)c1ccc(/C=C2\SC(=S)N(CC(=O)NS(=O)(=O)c3ccccc3)C2=O)cc1 [Example 9, (Z) N-({5-[4-(Hexyl-methyl-amino)benzylidene]-4-oxo-2-thioxo-thiazolidin-3-yl}-acetyl)benzenesulfonamide]
pIC50 (Aβ(1-40) [1]): < 4.00
pIC50 (Aβ(1-40) [2]): 5.76
pIC50 (Aβ(1-42)): 5.67
pIC50 [3]: 5.40
melting point: 173 to 177 °C

Continued, values first:

pIC50 (Aβ(1-40) [1]): < 4.00
pIC50 (Aβ(1-40) [2]): 5.96
pIC50 (Aβ(1-42)): 5.60
pIC50 [3]: 5.10
melting point: 150 to 153 °C
SMILES: CCCCCCN(C)c1ccc(/C=C2\SC(=S)N(CCNS(C)(=O)=O)C2=O)cc1 [Example 10, (Z) N-(2-{5-[4-(Hexyl-methyl-amino)-benzylidene]-4-oxo-2-thioxo-thiazolin-3-yl}-ethyl)-methanesulfonamide]

pIC50 (Aβ(1-40) [1]): < 4.00
pIC50 (Aβ(1-40) [2]): 5.05
pIC50 (Aβ(1-42)): 5.66
pIC50 [3]: 4.60
melting point: 152 to 155 °C
SMILES: CCCCCCN(C)c1ccc(/C=C2\SC(=S)N(CCNS(=O)(=O)c3ccccc3)C2=O)cc1 [Example 11, (Z) N(2-{5-[4-(Hexyl-methyl-amino)benzylidene]-4-oxo-2-thioxo-thiazolidin-3-yl}-ethyl)-benzenesulfonamide]

pIC50 (Aβ(1-40) [1]): < 4.00
pIC50 (Aβ(1-40) [2]): 6.00
pIC50 (Aβ(1-42)): 5.79
pIC50 [3]: 4.59
melting point: 170 to 173 °C
SMILES: CCCCCCN(C)c1ccc(/C=C2\SC(=S)N(CCNS(=O)(=O)C(F)(F)F)C2=O)cc1 [Example 12, (Z) C,C,C-Trifluoro-N-(2-{5-[4-(hexyl-methyl-amino)benzyldene]-4-oxo-2-thioxo-thiazolidin-3-yl}-ethyl)methanesulfonamide]

pIC50 (Aβ(1-40) [1]): < 4.00
pIC50 (Aβ(1-40) [2]): 5.00
pIC50 (Aβ(1-42)): 5.46
pIC50 [3]: 4.55
melting point: 136 to 139 °C
SMILES: CCCCCCN(C)c1ccc(/C=C2\SC(=S)N(CCNC(=O)C(F)(F)F)C2=O)cc1 [Example 13, (Z) 2,2,2-Trifluoro-N-(2-{5-[4(hexyl-methyl-amino)benzylidene]-4-oxo-2-thioxo-thiazolidin-3-yl}-ethyl)-acetamide]
